From PubChem BioAssay AID1918948 (Molecular Pharmacology Branch, DTP, NCI, 2023)
pIC50: −log10 of the molar value. Where “and” joins values, the source holds several entries; their conditions need not be identical. Equal values may be shown once.

Test system: K-562 leukemia growth, % test/control
Experiment: Anticancer human tumor K-562 cell line growth inhibition;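 as to viability, T/C: 100% = DMSO vehicle wells and lower values mean fewer viable cells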
Conditions: spheroids with HUVEC and MSC; for viability, T/C: stronger effect = lower value
Method in brief: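 Complex spheroids of tumor cells with HUVEC and human MSCs, exposed to iadademstat combined with other agents. Each agent tested in half-log steps from near clinical Cmax (else 10 microM top), DMSO ≤0.25%.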

[1] = curve of first compound, second compound 0.1 µM
[2] = curve of first compound, second compound 0.316 µM
[3] = curve of first compound, second compound 1 µM
[4] = curve of first compound, second compound 3.16 µM
[5] = curve of first compound, second compound 10 µM
[6] = second compound 0.1 µM, first compound 0.00949 µM
[7] = second compound 0.1 µM, first compound 0.03 µM
[8] = second compound 0.1 µM, first compound 0.0949 µM
[9] = second compound 0.1 µM, first compound 0.3 µM
[10] = second compound 0.316 µM, first compound 0.00949 µM
[11] = second compound 0.316 µM, first compound 0.03 µM
[12] = second compound 0.316 µM, first compound 0.0949 µM
[13] = second compound 0.316 µM, first compound 0.3 µM
[14] = second compound 1 µM, first compound 0.00949 µM
[15] = second compound 1 µM, first compound 0.03 µM
[16] = second compound 1 µM, first compound 0.0949 µM
[17] = second compound 1 µM, first compound 0.3 µM
[18] = second compound 3.16 µM, first compound 0.00949 µM
[19] = second compound 3.16 µM, first compound 0.03 µM
[20] = second compound 3.16 µM, first compound 0.0949 µM
[21] = second compound 3.16 µM, first compound 0.3 µM
[22] = second compound 10 µM, first compound 0.00949 µM
[23] = second compound 10 µM, first compound 0.03 µM
[24] = second compound 10 µM, first compound 0.0949 µM
[25] = second compound 10 µM, first compound 0.3 µM

Q: What does the source list for `Nc1ncn(C2CC(O)C(CO)S2)c(=O)n1` (configuration not stated) + NC1CCC(NC2CC2c2ccccc2)CC1?
A: pIC50 [1]: 6.76; pIC50 [2]: 6.77; pIC50 [3]: 6.83; pIC50 [4]: 6.87; pIC50 [5]: 7.22; viability, T/C (second compound 0.1 µM, first compound 0.000949 µM): 102%; viability, T/C (second compound 0.1 µM, first compound 0.003 µM): 106%; viability, T/C [6]: 107%; viability, T/C [7]: 95.6%; viability, T/C [8]: 69%; viability, T/C [9]: 33.5%; viability, T/C (second compound 0.316 µM, first compound 0.000949 µM): 106%; viability, T/C (second compound 0.316 µM, first compound 0.003 µM): 108%; viability, T/C [10]: 108%; viability, T/C [11]: 95.7%; viability, T/C [12]: 68%; viability, T/C [13]: 33%; viability, T/C (second compound 1 µM, first compound 0.000949 µM): 108%; viability, T/C (second compound 1 µM, first compound 0.003 µM): 110%; viability, T/C [14]: 107%; viability, T/C [15]: 94.3%; viability, T/C [16]: 65.2%; viability, T/C [17]: 26.6%; viability, T/C (second compound 3.16 µM, first compound 0.000949 µM): 108%; viability, T/C (second compound 3.16 µM, first compound 0.003 µM): 111%; viability, T/C [18]: 106%; viability, T/C [19]: 89.2%; viability, T/C [20]: 60.3%; viability, T/C [21]: 28.4%; viability, T/C (second compound 10 µM, first compound 0.000949 µM): 102%; viability, T/C (second compound 10 µM, first compound 0.003 µM): 107%; viability, T/C [22]: 95.9%; viability, T/C [23]: 70.7%; viability, T/C [24]: 36.5%; viability, T/C [25]: 18.6%

Q: `COc1cc(C2c3cc4c(cc3C(OC3OC5COC(C)OC5C(O)C3O)C3COC(=O)C23)OCO4)cc(OC)c1O` (configuration not stated) + NC1CC1c1ccc(-c2cccc(O)c2)cc1 was tested. Which pIC50 [1] did it give?
A: 7.49

Q: What about the pIC50 [2] of the same molecule?
A: 7.53

Q: What about the pIC50 [3] of the same molecule?
A: 7.60

Q: And the pIC50 [4]?
A: 7.68

Q: What about the pIC50 [5] of the same molecule?
A: 7.91

Q: And the viability, T/C [6]?
A: 89.1%

Q: And the viability, T/C [7]?
A: 34.1%

Q: And the viability, T/C [8]?
A: 40%

Q: And the viability, T/C [9]?
A: 32.2%

Q: And the viability, T/C (second compound 0.1 µM, first compound 0.949 µM)?
A: 5.98%

Q: And the viability, T/C (second compound 0.1 µM, first compound 3 µM)?
A: 1.51%

Q: And the viability, T/C [10]?
A: 82.5%

Q: What about the viability, T/C [11] of the same molecule?
A: 33.9%

Q: What about the viability, T/C [12] of the same molecule?
A: 40%

Q: What about the viability, T/C [13] of the same molecule?
A: 26.1%

Q: And the viability, T/C (second compound 0.316 µM, first compound 0.949 µM)?
A: 4.21%

Q: And the viability, T/C (second compound 0.316 µM, first compound 3 µM)?
A: 1.39%

Q: And the viability, T/C [14]?
A: 76.1%

Q: And the viability, T/C [15]?
A: 31.1%

Q: And the viability, T/C [16]?
A: 39%

Q: What about the viability, T/C [17] of the same molecule?
A: 22.8%

Q: What about the viability, T/C (second compound 1 µM, first compound 0.949 µM) of the same molecule?
A: 3.44%

Q: And the viability, T/C (second compound 1 µM, first compound 3 µM)?
A: 2.06%

Q: And the viability, T/C [18]?
A: 68.8%

Q: What about the viability, T/C [19] of the same molecule?
A: 28.7%

Q: And the viability, T/C [20]?
A: 40.2%

Q: And the viability, T/C [21]?
A: 20%

Q: What about the viability, T/C (second compound 3.16 µM, first compound 0.949 µM) of the same molecule?
A: 3.6%

Q: What about the viability, T/C (second compound 3.16 µM, first compound 3 µM) of the same molecule?
A: 2.13%

Q: What about the viability, T/C [22] of the same molecule?
A: 57.5%

Q: What about the viability, T/C [23] of the same molecule?
A: 28.1%

Q: And the viability, T/C [24]?
A: 34.1%

Q: What about the viability, T/C [25] of the same molecule?
A: 14.8%

Q: And the viability, T/C (second compound 10 µM, first compound 0.949 µM)?
A: 2.21%

Q: And the viability, T/C (second compound 10 µM, first compound 3 µM)?
A: 1.35%

Q: For `CC(C)CC(NC(=O)CNC(=O)c1cc(Cl)ccc1Cl)B1OC(=O)CC(CC(=O)O)(C(=O)O)O1` (configuration not stated), which viability, T/C (compound 0.000316 µM) is on record?
A: 103% and 97%

Q: What about the viability, T/C (compound 0.001 µM) of the same molecule?
A: 97.5% and 95.5%

Q: What about the viability, T/C (compound 0.00316 µM) of the same molecule?
A: 95.6% and 97.4%

Q: What about the viability, T/C (compound 0.01 µM) of the same molecule?
A: 74.2% and 68.6%

Q: And the viability, T/C (compound 0.0316 µM)?
A: 24.2% and 13.3%

Q: And the viability, T/C (compound 0.1 µM)?
A: 6.61% and 2.45%

Q: And the pIC50 (curve of compound)?
A: 7.76 and 7.83

Q: With `O=C(C=Cn1cnc(-c2cc(C(F)(F)F)cc(C(F)(F)F)c2)n1)NNc1cnccn1` + NC1CCC(NC2CC2c2ccccc2)CC1 as the molecule, how does the pIC50 [1] read?
A: 7.22

Q: And the pIC50 [2]?
A: 7.23

Q: What about the pIC50 [3] of the same molecule?
A: 7.21

Q: What about the pIC50 [4] of the same molecule?
A: 7.22

Q: And the pIC50 [5]?
A: 7.37

Q: And the viability, T/C (second compound 0.1 µM, first compound 0.00316 µM)?
A: 104%

Q: And the viability, T/C (second compound 0.1 µM, first compound 0.01 µM)?
A: 92.3%

Q: And the viability, T/C (second compound 0.1 µM, first compound 0.0316 µM)?
A: 69.5%

Q: And the viability, T/C (second compound 0.1 µM, first compound 0.1 µM)?
A: 36.6%

Q: What about the viability, T/C (second compound 0.1 µM, first compound 0.316 µM) of the same molecule?
A: 4.19%

Q: What about the viability, T/C (second compound 0.1 µM, first compound 1 µM) of the same molecule?
A: 1.72%

Q: And the viability, T/C (second compound 0.316 µM, first compound 0.00316 µM)?
A: 107%

Q: What about the viability, T/C (second compound 0.316 µM, first compound 0.01 µM) of the same molecule?
A: 92%

Q: What about the viability, T/C (second compound 0.316 µM, first compound 0.0316 µM) of the same molecule?
A: 69.2%

Q: And the viability, T/C (second compound 0.316 µM, first compound 0.1 µM)?
A: 36.5%

Q: And the viability, T/C (second compound 0.316 µM, first compound 0.316 µM)?
A: 4.44%

Q: And the viability, T/C (second compound 0.316 µM, first compound 1 µM)?
A: 1.67%

Q: What about the viability, T/C (second compound 1 µM, first compound 0.00316 µM) of the same molecule?
A: 107%

Q: What about the viability, T/C (second compound 1 µM, first compound 0.01 µM) of the same molecule?
A: 91.5%

Q: And the viability, T/C (second compound 1 µM, first compound 0.0316 µM)?
A: 70%

Q: What about the viability, T/C (second compound 1 µM, first compound 0.1 µM) of the same molecule?
A: 38.2%

Q: What about the viability, T/C (second compound 1 µM, first compound 0.316 µM) of the same molecule?
A: 4.8%

Q: And the viability, T/C (second compound 1 µM, first compound 1 µM)?
A: 2.29%

Q: What about the viability, T/C (second compound 3.16 µM, first compound 0.00316 µM) of the same molecule?
A: 103%

Q: And the viability, T/C (second compound 3.16 µM, first compound 0.01 µM)?
A: 92.5%

Q: What about the viability, T/C (second compound 3.16 µM, first compound 0.0316 µM) of the same molecule?
A: 67.8%

Q: And the viability, T/C (second compound 3.16 µM, first compound 0.1 µM)?
A: 38.8%

Q: And the viability, T/C (second compound 3.16 µM, first compound 0.316 µM)?
A: 4.71%

Q: And the viability, T/C (second compound 3.16 µM, first compound 1 µM)?
A: 1.78%

Q: And the viability, T/C (second compound 10 µM, first compound 0.00316 µM)?
A: 88.8%

Q: What about the viability, T/C (second compound 10 µM, first compound 0.01 µM) of the same molecule?
A: 75.1%

Q: And the viability, T/C (second compound 10 µM, first compound 0.0316 µM)?
A: 57.1%

Q: And the viability, T/C (second compound 10 µM, first compound 0.1 µM)?
A: 33.7%

Q: And the viability, T/C (second compound 10 µM, first compound 0.316 µM)?
A: 3.55%

Q: And the viability, T/C (second compound 10 µM, first compound 1 µM)?
A: 2.29%
